Assay [1] has as its target Histone deacetylase 1 (Homo sapiens, UniProt Q13547). Kind of assay: (§1) Enzyme Assay: The assay have been carried out in a 96 well format and the BIOMOL using a fluorescent-based HDAC activity assay.
In assay [2] the target is T1, Histone deacetylase 8 (Homo sapiens, UniProt Q9BY41).
T1 sequence (Q9BY41 whole entry): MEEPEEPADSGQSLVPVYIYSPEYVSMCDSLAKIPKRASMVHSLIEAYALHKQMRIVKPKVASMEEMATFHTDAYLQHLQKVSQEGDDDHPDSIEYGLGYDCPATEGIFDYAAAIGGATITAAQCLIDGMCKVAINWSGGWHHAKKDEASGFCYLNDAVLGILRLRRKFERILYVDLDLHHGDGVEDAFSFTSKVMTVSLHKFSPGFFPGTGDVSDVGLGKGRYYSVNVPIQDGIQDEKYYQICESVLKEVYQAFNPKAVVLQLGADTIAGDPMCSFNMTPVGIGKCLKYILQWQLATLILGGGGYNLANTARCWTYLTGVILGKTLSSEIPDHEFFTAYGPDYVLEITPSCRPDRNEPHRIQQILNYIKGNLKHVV
The assay is described as §1.

The structures appear in SMILES notation.

Consider 3 molecules from ChEMBL document CHEMBL3639191, “Benzimidazole derivatives: preparation and pharmaceutical applications” (2013).

Chain of Histone deacetylase 1 (Q13547 whole entry): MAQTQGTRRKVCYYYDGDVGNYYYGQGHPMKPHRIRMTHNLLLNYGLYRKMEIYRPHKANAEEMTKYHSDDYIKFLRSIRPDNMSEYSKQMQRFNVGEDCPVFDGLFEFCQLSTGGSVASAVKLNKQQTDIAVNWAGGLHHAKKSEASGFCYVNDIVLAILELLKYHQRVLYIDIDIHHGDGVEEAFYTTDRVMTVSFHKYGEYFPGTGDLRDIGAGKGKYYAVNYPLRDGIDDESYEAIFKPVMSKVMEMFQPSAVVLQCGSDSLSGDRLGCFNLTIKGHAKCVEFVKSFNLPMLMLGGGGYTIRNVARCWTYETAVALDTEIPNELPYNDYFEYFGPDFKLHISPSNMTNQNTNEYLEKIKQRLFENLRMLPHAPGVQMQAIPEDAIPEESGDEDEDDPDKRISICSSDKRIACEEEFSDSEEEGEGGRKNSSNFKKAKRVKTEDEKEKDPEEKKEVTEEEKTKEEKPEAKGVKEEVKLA

Consider `COc1ccc(-c2nc3cc(/C=C/C(=O)NO)ccc3n2CC(O)CO)cc1` (stereo unspecified), for which the IC50 – broadly, the concentration that inhibits the measured activity by half – in assay [1] amounted to 1380 nM; in assay [2], 262 nM.

Turning to `O=C(/C=C/c1ccc2c(c1)nc(C1CCCCC1)n2CCCO)NO`, the IC50 in assay [1] worked out at 3240 nM; in assay [2] it was 203 nM.

For `COc1cc(-c2nc3cc(/C=C/C(=O)NO)ccc3n2C)ccc1OCc1ccccc1`, the values for the IC50 in assay [1] and in assay [2] were 1370 nM and 1710 nM, respectively.
